Tests used:
[1] = system: platelets in sample blood (whole blood); assay: Dielectric measurement (complex permittivity) of blood coagulation with platelet activating agent; assay type: cell-based, human; details: frequency 10.7 MHz
Description: By using an evacuated blood collection tube treated with use of sodium citrate as an anticoagulant, blood was collected from the healthy person and the patient with thrombocytopenia (the number of platelets in 1 μL of blood was 1.2×10^4) as a whole blood sample. Next, 0.25 M of a calcium chloride aqueous solution was added (85 μL per 1 mL of blood) to the sample blood whose temperature was kept at 37° C. and a blood coagulation reaction was started. The platelet activating agent (ADP) was so added as to be mixed in the calcium chloride aqueous solution (10 μM per 1 mL of blood). Immediately after the start of the blood coagulation reaction, measurement was performed for 60 minutes by using an impedance analyzer (Agilent Corporation, 4294A) under the following condition: temperature was 37° C.; frequency range was 40 Hz to 110 MHz; and measurement time interval was one minute.

[2] = system: platelets in sample blood / platelet poor blood; assay: Rheometer (free damped oscillation type) measurement of viscoelasticity change / coagulation time; assay type: cell-based, human
Description: By using an evacuated blood collection tube treated with use of sodium citrate as an anticoagulant, blood was collected from the healthy person and the patient with thrombocytopenia (the number of platelets in 1 μL of blood was 1.2×10^4) as a whole blood sample. Furthermore, blood cells and platelets were separated from the whole blood sample to prepare platelet poor plasma. The sample blood was centrifuged under a condition of 500 G and five minutes to be separated into blood cells and platelet rich plasma (PRP). The plasma was centrifuged under a condition of 2000 G and 30 minutes and sedimentation of the platelets was caused to obtain the platelet poor plasma (PPP). Measurement was performed by using a rheometer of the free damped oscillation type. The coagulation time was obtained by observing a change in the viscoelasticity and compared with the result by the dielectric measurement.

With `Nc1ncnc2c1ncn2[C@@H]1O[C@H](COP(=O)(O)OP(=O)(O)O)[C@@H](O)[C@H]1O` [ADP, adenosine diphosphate] the “coagulation time with ADP addition” value ([1]; sample blood of patient with thrombocytopenia (1.2×10^4 platelets in 1 μL), ADP added) was 38 min, the “change of coagulation time due to ADP addition (dielectric measurement)” value ([1]; sample blood of patient with thrombocytopenia) was “shortening of the coagulation time was found” and the “average of the coagulation time when the ADP was added” value ([1]; sample blood of plural healthy persons, ADP 10 μM per 1 mL of blood in calcium chloride solution, 37° C., without ADP 31 minutes) was 17 min. For the same compound, the “change of coagulation time due to ADP addition (dielectric measurement)” value ([1]; sample blood of plural healthy persons) was “shortening of the coagulation time”, the “change of coagulation time due to ADP addition (rheometer)” value ([2]; platelet poor blood (cleaned red blood cells added to platelet poor plasma)) was “not observed” and the “change of coagulation time due to ADP addition (rheometer)” value ([2]; sample blood of the healthy person) was “shortening of the coagulation time”.

— patent publication US8999243B2, “Blood coagulation system analyzing method and blood coagulation system analyzing device” (Sony Corporation, priority 2011, dated 2015)
